Target: rhesus (Macacca Mulatta) H3 receptor (Macaca mulatta, UniProt Q865E1)
Assay: Rhesus H3 radioligand binding assay ([3H]-Methylhistamine, WGA SPA)
Parameters: species or system rhesus monkey (Macacca Mulatta)
Conditions: displacement of [3H]-Methylhistamine (2 nM) from rhesus H3 receptor membranes; Cheng-Prusoff
Method: (Genbank #AY231164). Stably transfected cultures were amplified in tissue culture flasks by standard tissue culture methods and induced to express rhesus H3 by exposure to 500 ng/ml tetracycline (Cellgro) for 24 hours. After induction, cells were dissociated from flasks utilizing Cell Stripper (Cellgro). Cells were centrifuged (1K×g, 5 min) and pellet frozen in an ethanol-dry ice bath to disrupt cell membranes. Frozen cell pellet was re-suspended in 5 mM HEPES (pH 7.4, Invitrogen) at 10 ml/1000 cm2 of harvested cells. The cell suspension was drawn through an 18 gauge needle (2-3×) followed by a 23 gauge needle (2-3×) to further disrupt cell membranes. The cell suspension was centrifuged (40K×g, 30 min). Cell membrane pellet was re-suspended in 5 mM HEPES (pH 7.4, Invitrogen) at a final protein concentration of 10 mg/ml. Rhesus H3 membranes were stored under liquid nitrogen prior to use in [3H]-Methylhistamine and GTPγS radioligand binding assays.
Rhesus H3 radioligand binding assay was performed using rhesus H3 receptor membranes (prepared as described above), [3H]-Methylhistamine (Perkin Elmer) and WGA SPA beads (wheat germ agglutinin scintillation proximity assay) beads (Amersham). The assay was performed in 96-well Opti-Plates (Packard). Each reaction contained 50 μl rhesus H3 membranes (20-30 μg total protein), 50 μl WGA SPA beads (0.1 μg) and 50 μl of 83 Ci/mmol [^3H]-Methylhistamine (final concentration 2 nM) and 50 μl of tested compound. The compounds of this invention and/or vehicle were diluted with binding buffer from 10 mM DMSO stocks. Assay plates were sealed with TopSeal (Perkin Elmer) and mixed on shaker (25° C., 1 hour). Assay plates were read on TopCount scintillation counter (Packard). Results were analyzed by Hill transformation and Ki values were determined by Cheng-Prusoff equation.

Chain of rhesus (Macacca Mulatta) H3 receptor (Q865E1 1-445): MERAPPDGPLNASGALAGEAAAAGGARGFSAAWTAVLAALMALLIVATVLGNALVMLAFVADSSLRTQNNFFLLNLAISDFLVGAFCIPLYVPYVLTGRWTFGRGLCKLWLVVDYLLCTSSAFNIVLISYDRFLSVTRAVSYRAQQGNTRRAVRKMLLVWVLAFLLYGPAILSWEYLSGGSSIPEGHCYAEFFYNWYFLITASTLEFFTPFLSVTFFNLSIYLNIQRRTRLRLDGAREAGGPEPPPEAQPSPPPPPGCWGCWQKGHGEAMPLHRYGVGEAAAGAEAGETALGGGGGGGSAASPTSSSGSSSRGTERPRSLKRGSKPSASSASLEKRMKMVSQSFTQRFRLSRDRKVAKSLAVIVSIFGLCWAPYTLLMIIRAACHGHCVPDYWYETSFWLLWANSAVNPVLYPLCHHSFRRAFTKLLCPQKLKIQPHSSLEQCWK

| Compound | Ki [nM] |
| --- | --- |
| C[C@H]1CCCN1C1CC[C@H](c2ccc(NS(=O)(=O)c3ccc(F)c(F)c3)cc2)C1 (stereo partly drawn) [Example 30, 3,4-Difluoro-N-{4-[(S)-3-((S)-2-methyl-pyrrolidin-1-yl)-cyclopentyl]-phenyl}-benzenesulfonamide] | 27.4 |
| C[C@H]1CCCN1C1CC[C@H](c2ccc(NC(=O)c3ccc(F)cc3)cc2)C1 (stereo partly drawn) [Example 31, 4-Fluoro-N-{4-[(S)-3-((S)-2-methyl-pyrrolidin-1-yl)-cyclopentyl]-phenyl}-benzamide] | 34.9 |
| C[C@H]1CCCN1C1CC[C@H](c2ccc(NC(=O)c3ccc(Cl)cc3)cc2)C1 (stereo partly drawn) [Example 32, 4-Chloro-N-{4-[(S)-3-((S)-2-methyl-pyrrolidin-1-yl)-cyclopentyl]-phenyl}-benzamide] | 65.5 |
| Cc1ccccc1C(=O)Nc1ccc([C@H]2CCC(N3CCC[C@@H]3C)C2)cc1 (stereo partly drawn) [Example 33, 2-Methyl-N-{4-[(S)-3-((S)-2-methyl-pyrrolidin-1-yl)-cyclopentyl]-phenyl}-benzamide] | 32.6 |
| Cc1ccc(C(=O)Nc2ccc([C@H]3CCC(N4CCC[C@@H]4C)C3)cc2)cc1 (stereo partly drawn) [Example 34, 4-Methyl-N-{4-[(S)-3-((S)-2-methyl-pyrrolidin-1-yl)-cyclopentyl]-phenyl}-benzamide] | 98.7 |
| C[C@H]1CCCN1C1CC[C@H](c2ccc(NC(=O)c3ccccc3OC(F)(F)F)cc2)C1 (stereo partly drawn) [Example 35, N-{4-[(S)-3-((S)-2-Methyl-pyrrolidin-1-yl)-cyclopentyl]-phenyl}-2-trifluoromethoxy-benzamide] | 136 |
| C[C@H]1CCCN1C1CC[C@H](c2ccc(NC(=O)c3ccc(OC(F)(F)F)cc3)cc2)C1 (stereo partly drawn) [Example 36, N-{4-[(S)-3-((S)-2-Methyl-pyrrolidin-1-yl)-cyclopentyl]-phenyl}-4-trifluoromethoxy-benzamide] | 48.5 |
| C[C@H]1CCCN1C1CC[C@H](c2ccc(NC(=O)Cc3ccccc3)cc2)C1 (stereo partly drawn) [Example 37, N-{4-[(S)-3-((S)-2-Methyl-pyrrolidin-1-yl)-cyclopentyl]-phenyl}-2-phenyl-acetamide] | 71.4 |
| CC1CCCN1C1CC[C@H](c2ccc(NC(=O)OCc3ccccc3)cc2)C1 (stereo partly drawn) [Intermediate (10), {4-[(S)-3-(2-Methyl-pyrrolidin-1-yl)-cyclopentyl]-phenyl}-carbamic acid benzyl ester] | 65.4 |

From patent US9453023B2, “Substituted phenyl cycloalkyl pyrrolidine (piperidine) spirolactams and amides, preparation and therapeutic use thereof” (SANOFI, priority 2010, dated 2016)
